Measured values from the supplement of paper PMC10307832.

Tests used:
Experiment in all cases: relative viability (nuclei count vs DMSO), 5 days (fraction); higher = more cells survive
[1] = tested on: EKVX
Method in brief: (§1)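 For relative viability, nuclei counts in treated wells were divided by those in vehicle wells. Lung cancer cell lines had been pin-tool dosed in 1536-well plates the day after seeding and cultured for 5 days, then fixed and stained in one step (final 0.05% Triton X-100, 1% formaldehyde, 1 ug/ml Hoechst) and imaged at 4×. Doses were one drug alone or a fixed anchor-drug dose plus five library-drug doses (not always all listed) in √10 steps, and values are duplicate-plate medians.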

[2] = tested on: COR-L 105
Method in brief: as §1

[3] = tested on: HCC-366
Method in brief: as §1

[4] = tested on: NCI-H1437
Method in brief: as §1

[5] = tested on: BEN
Method in brief: as §1

[6] = tested on: LOU-NH91
Method in brief: as §1

[7] = tested on: PC-14
Method in brief: as §1

[8] = tested on: HARA
Method in brief: as §1

[9] = tested on: NCI-H441
Method in brief: as §1

[10] = tested on: NCI-H460
Method in brief: as §1

[11] = tested on: ABC-1
Method in brief: as §1

[12] = tested on: NCI-H1650
Method in brief: as §1

[13] = tested on: CAL-12T
Method in brief: as §1

[14] = tested on: NCI-H727
Method in brief: as §1

[15] = tested on: NCI-H1666
Method in brief: as §1

[16] = tested on: NCI-H661
Method in brief: as §1

[17] = tested on: NCI-H2009
Method in brief: as §1

[18] = tested on: 201T
Method in brief: as §1

[19] = tested on: NCI-H3122
Method in brief: as §1

[20] = tested on: LK-2
Method in brief: as §1

[21] = tested on: NCI-H2170
Method in brief: as §1

For Nc1ccn([C@@H]2O[C@H](CO)[C@@H](O)[C@@H]2O)c(=O)n1 [Cytarabine] + CS(=O)(=O)N1CCN(Cc2cc3nc(-c4cccc5[nH]ncc45)nc(N4CCOCC4)c3s2)CC1 [Pictilisib] (partner 1 µM), the relative viability ([1]; first compound 0.005 µM) was 0.486, the relative viability ([1]; first compound 0.01581 µM) was 0.362 and the relative viability ([1]; first compound 0.05 µM) was 0.406. It also gave a relative viability ([1]; first compound 0.1581 µM) of 0.2, a relative viability ([1]; first compound 0.5 µM) of 0.163 and a relative viability ([2]; first compound 0.005 µM) of 0.32. It also gave a relative viability ([2]; first compound 0.01581 µM) of 0.361, a relative viability ([2]; first compound 0.05 µM) of 0.312 and a relative viability ([2]; first compound 0.1581 µM) of 0.311. The relative viability ([2]; first compound 0.5 µM) was 0.242, the relative viability ([3]; first compound 0.005 µM) was 0.134 and the relative viability ([3]; first compound 0.01581 µM) was 0.129. It also gave a relative viability ([3]; first compound 0.05 µM) of 0.0867, a relative viability ([3]; first compound 0.1581 µM) of 0.0754 and a relative viability ([3]; first compound 0.5 µM) of 0.0688. It also gave a relative viability ([4]; first compound 0.005 µM) of 0.381, a relative viability ([4]; first compound 0.01581 µM) of 0.245 and a relative viability ([4]; first compound 0.05 µM) of 0.252. For the same molecule, the relative viability ([4]; first compound 0.1581 µM) was 0.112, the relative viability ([4]; first compound 0.5 µM) was 0.11 and the relative viability ([5]; first compound 0.005 µM) was 0.571. The relative viability ([5]; first compound 0.01581 µM) was 0.504, the relative viability ([5]; first compound 0.05 µM) was 0.413 and the relative viability ([5]; first compound 0.1581 µM) was 0.279. For the same molecule, the relative viability ([5]; first compound 0.5 µM) was 0.195, the relative viability ([6]; first compound 0.005 µM) was 0.525 and the relative viability ([6]; first compound 0.01581 µM) was 0.56. The relative viability ([6]; first compound 0.05 µM) was 0.489, the relative viability ([6]; first compound 0.1581 µM) was 0.385 and the relative viability ([6]; first compound 0.5 µM) was 0.369. For the same molecule, the relative viability ([7]; first compound 0.01581 µM) was 0.698, the relative viability ([7]; first compound 0.05 µM) was 0.49 and the relative viability ([7]; first compound 0.5 µM) was 0.126. The relative viability ([8]; first compound 0.005 µM) was 0.316, the relative viability ([8]; first compound 0.01581 µM) was 0.368 and the relative viability ([8]; first compound 0.05 µM) was 0.163. The relative viability ([8]; first compound 0.1581 µM) was 0.106, the relative viability ([8]; first compound 0.5 µM) was 0.117 and the relative viability ([9]; first compound 0.005 µM) was 0.481. The relative viability ([9]; first compound 0.01581 µM) was 0.443, the relative viability ([9]; first compound 0.05 µM) was 0.411 and the relative viability ([9]; first compound 0.1581 µM) was 0.205. It also gave a relative viability ([9]; first compound 0.5 µM) of 0.223, a relative viability ([10]; first compound 0.005 µM) of 0.328 and a relative viability ([10]; first compound 0.01581 µM) of 0.322. It also gave a relative viability ([10]; first compound 0.05 µM) of 0.226, a relative viability ([10]; first compound 0.1581 µM) of 0.106 and a relative viability ([10]; first compound 0.5 µM) of 0.0854. For the same molecule, the relative viability ([11]; first compound 0.005 µM) was 0.939, the relative viability ([11]; first compound 0.01581 µM) was 0.679 and the relative viability ([11]; first compound 0.05 µM) was 0.698. It also gave a relative viability ([11]; first compound 0.1581 µM) of 0.635, a relative viability ([11]; first compound 0.5 µM) of 0.325 and a relative viability ([12]; first compound 0.005 µM) of 0.442. For the same molecule, the relative viability ([12]; first compound 0.01581 µM) was 0.467, the relative viability ([12]; first compound 0.05 µM) was 0.359 and the relative viability ([12]; first compound 0.1581 µM) was 0.205. It also gave a relative viability ([12]; first compound 0.5 µM) of 0.181, a relative viability ([13]; first compound 0.005 µM) of 0.403 and a relative viability ([13]; first compound 0.01581 µM) of 0.357. The relative viability ([13]; first compound 0.05 µM) was 0.31, the relative viability ([13]; first compound 0.1581 µM) was 0.326 and the relative viability ([13]; first compound 0.5 µM) was 0.222. It also gave a relative viability ([14]; first compound 0.005 µM) of 0.45, a relative viability ([14]; first compound 0.01581 µM) of 0.237 and a relative viability ([14]; first compound 0.05 µM) of 0.211. It also gave a relative viability ([14]; first compound 0.1581 µM) of 0.222, a relative viability ([14]; first compound 0.5 µM) of 0.203 and a relative viability ([15]; first compound 0.005 µM) of 0.498. The relative viability ([15]; first compound 0.01581 µM) was 0.345, the relative viability ([15]; first compound 0.05 µM) was 0.381 and the relative viability ([15]; first compound 0.1581 µM) was 0.229. The relative viability ([15]; first compound 0.5 µM) was 0.205, the relative viability ([16]; first compound 0.005 µM) was 0.411 and the relative viability ([16]; first compound 0.01581 µM) was 0.323. It also gave a relative viability ([16]; first compound 0.05 µM) of 0.217, a relative viability ([16]; first compound 0.1581 µM) of 0.284 and a relative viability ([16]; first compound 0.5 µM) of 0.222. It also gave a relative viability ([17]; first compound 0.005 µM) of 0.907, a relative viability ([17]; first compound 0.01581 µM) of 0.678 and a relative viability ([17]; first compound 0.05 µM) of 0.81. It also gave a relative viability ([17]; first compound 0.1581 µM) of 0.487, a relative viability ([17]; first compound 0.5 µM) of 0.224 and a relative viability ([18]; first compound 0.005 µM) of 0.655. For the same molecule, the relative viability ([18]; first compound 0.01581 µM) was 0.707, the relative viability ([18]; first compound 0.05 µM) was 0.738 and the relative viability ([18]; first compound 0.1581 µM) was 0.576. The relative viability ([18]; first compound 0.5 µM) was 0.416, the relative viability ([19]; first compound 0.005 µM) was 0.629 and the relative viability ([19]; first compound 0.01581 µM) was 0.494. It also gave a relative viability ([19]; first compound 0.05 µM) of 0.61, a relative viability ([19]; first compound 0.1581 µM) of 0.329 and a relative viability ([19]; first compound 0.5 µM) of 0.204. For the same molecule, the relative viability ([20]; first compound 0.005 µM) was 0.531, the relative viability ([20]; first compound 0.01581 µM) was 0.476 and the relative viability ([20]; first compound 0.05 µM) was 0.426. It also gave a relative viability ([20]; first compound 0.1581 µM) of 0.23, a relative viability ([20]; first compound 0.5 µM) of 0.235 and a relative viability ([21]; first compound 0.01581 µM) of 0.257. For the same molecule, the relative viability ([21]; first compound 0.05 µM) was 0.235, the relative viability ([21]; first compound 0.1581 µM) was 0.191 and the relative viability ([21]; first compound 0.5 µM) was 0.192.
